Test results: US20160113900A1, “INHIBITORS OF MITOCHONDRIAL STAT3 AND USES THEREOF IN MODULATION OF MAST CELL EXOCYTOSIS” (Yissum Research Development Company of the Hebrew …, priority 2014, published 2016)

Columns and labels:
RBL cells [1] = experiment: β-Hexosaminidase release assay (degranulation) in RBL cells; type: cell-based, rat
Description: (§1) RBL-2H3 cells were maintained in RPMI 1640 medium as previously described1. Bone marrow was isolated from 5-6 week-old mice, and BMMC were cultured in RPMI medium supplemented with 20 ng/ml interleukin-3 (IL-3) and 20 ng/ml SCF as previously described2, 3. Cells were generally grown for a minimum of 4 weeks and used when >90% of the population expressed FcεRI. BMMC and RBL cells were sensitized first with anti-DNP IgE monoclonal antibody (SPE-7; Sigma-Aldrich Corp.) and then challenged with DNP-BSA (Sigma-Aldrich Corp.). IgE antibody was centrifuged (18,000 g, 5 min) before use to remove aggregates. […] For glycolysis elimination cells were maintained in glucose-free RPMI supplemented with 10% dialyzed fetal calf serum and 5 mM galactose.
(§2) 1×104 RBL or 3×104 BMMC were immunologically activated as described above. After IgE incubation, the cells were washed three times with 5 mL of degranulation buffer (NaCl 130 mM, KCl 5 mM, Glucose 5.6 mM, MgCl2 1 mM, CaCl2 1.2 mM, Hepes pH 7.4 10 mM, BSA 0.1%) and resuspended in 200 μL of the same buffer with DNP-albumin for 30 min. The release of β-hexosaminidase was determined in triplicates in a 96-well plate. Aliquots (20 μL) of supernatants and cell lysates were incubated for 30 minutes with 100 μL of substrate solution (1.3 mg/mL p-nitrophenyl-b-D-2-acetamido-2-deoxyglucopyranozide in 0.1 M citrate [pH 4.51]). The reaction was stopped by the addition of 200 μL of 0.2 M glycine (pH 10.7). The plate OD was read in an enzyme-linked immunosorbent assay (ELISA) reader at a wavelength of 405 nm Percent release values for each experimental condition were calculated3.

RBL cells [2] = experiment: ATP determination (ATPLite luminescence) in RBL cells; type: cell-based, rat; details: for ATP levels: RBL cells
Description: as §1
ATP levels were measured using the ATPLite luminescence-based assay according to the manufacturer's instructions (Perkin Elmer, Waltham, Mass., USA).

RBL cells [3] = experiment: Oxygen consumption (Seahorse XF analyzer) in RBL cells; type: cell-based, rat; details: for decrease in oxygen consumption: 40 μM U0126; for oxygen consumption: RBL cells, 3 h
Description: as §1
Oxygen consumption rate (OCR) was measured using an XF24 extracellular flux analyzer (Seahorse Biosciences, North Billeric, Mass., USA).

[4] = test system: STAT3 serine 727 phosphorylation; experiment: Western blot of STAT3 serine 727 phosphorylation in activated RBL cells; type: cell-based, rat
Description: RBL cells were washed once in cold PBS prior to homogenization. 9×10^6 cells were homogenized in buffer A (320 mm sucrose, 5 mm Tris, 2 mm EGTA, pH 7.4) with 10 strokes of a Teflon Dounce homogenizer. The procedure was performed at 4° C. The homogenate was centrifuged for 3 min at 2000 g and the supernatant kept. This was repeated twice, and the supernatants combined then centrifuged for 3 min at 2000 g. to remove the nuclei and cell debris. The supernatant was transferred to a clean tube and centrifuged for 10 min at 12,000 g to pellet mitochondria, washed twice resuspended in a small volume of buffer A and stored at −70° C. In order to prepare mitoplasts, the mitochondrial pellet was resuspended in buffer A with the addition of 0.02% (w/v) digitonin. The pellet was resuspended and washed twice in large volumes of digitonin-free buffer A. […] Cells and mitochondria were vortexed and incubated on ice for 15 min. The lysates were then centrifuged at 14,000 g for 15 min and pellets were discarded. The protein concentration of each sample was determined using Bradford Reagent (Sigma-Aldrich). Proteins were resolved by 10-15% SDS-PAGE under reducing conditions and transferred to polyvinylidene difluoride membranes (Millipore Billerica, Ma). […] The membranes were washed three times with TBST for 5 mM before and after each incubation with secondary Ab. The proteins were detected with the appropriate secondary Ab (1 h; room temperature) coupled to HRP-conjugated goat anti-rabbit or anti-mouse Ab and visualized by chemiluminescence according to the manufacturer's instructions (Pierce).

caspase3 [5] = experiment: Western blot of caspase3 / cleaved caspase3 (apoptosis) in RBL cells; type: cell-based, rat
Description: (§3) RBL cells and mitochondrial pellets were lysed by the addition of lysis buffer (50 mM Tris-HCl pH 7.4, 1% Nonidet P-40, 0.25% Na-deoxycholate, 150 mM NaCl, 1 mM EDTA, 1 mM PMSF) supplemented with 15 μl protease inhibitor (Sigma-Aldrich). Cells and mitochondria were vortexed and incubated on ice for 15 min. The lysates were then centrifuged at 14,000 g for 15 min and pellets were discarded. The protein concentration of each sample was determined using Bradford Reagent (Sigma-Aldrich). Proteins were resolved by 10-15% SDS-PAGE under reducing conditions and transferred to polyvinylidene difluoride membranes (Millipore Billerica, Ma). The membranes were incubated in 5% fat-free milk and TBST (10 mM Tris-HCl, pH 7.4, 150 mM NaCl, 0.1% Tween 20) for 1 h and then in 5% BSA and TBST containing various dilutions of primary Abs for 18 h at 4° C. The membranes were washed three times with TBST for 5 mM before and after each incubation with secondary Ab. The proteins were detected with the appropriate secondary Ab (1 h; room temperature) coupled to HRP-conjugated goat anti-rabbit or anti-mouse Ab and visualized by chemiluminescence according to the manufacturer's instructions (Pierce).

c-myc = experiment: Western blot of c-myc (STAT3 target gene) in RBL cells; type: cell-based, rat; details: 3 h
Description: as §3
The levels of cleaved caspase3 were measured as an indicator of apoptosis, which could occur as a result of inhibiting STAT3's target genes. […] Since higher concentrations reduced the levels of c-myc and enhanced the levels of cleaved caspase3, the inventors concluded that 6 μM Mitocur-1/3 or lower would be suitable for the present invention. As these molecules are intended to be used in a time frame greater than 3 h, RBL cells were incubated with the same concentrations of Mitocur-1/3 for 24 h and the levels of cleaved caspase3 were determined by Western blot analysis.

BMMC [6] = experiment: β-Hexosaminidase release assay (degranulation) in BMMC; type: cell-based, mouse; details: activated BMMC, 6 μM
Description: as §1, §2

caspase3 [7] = experiment: Western blot of cleaved caspase3 in BMMC; type: cell-based, mouse; details: 6 μM (FIG. 21D)
BMMC [8] = experiment: Measurements of secreted mediators (ELISA) in activated BMMC; type: cell-based, mouse
Description: 1×106 BMMC were immunologically activated as described above. After IgE incubation, the cells were washed three times in PBS and incubated with DNP-albumin (Sigma-Aldrich) for 30 mM in complete growth medium. Supernatant was collected and Granzyme B and TNFα content were measured using ELISA Kits (eBioscience).

plasma histamine = experiment: In vivo histamine release assay, passive systemic IgE-mediated anaphylaxis model; details: Mitocur-1 80 mg/kg i.p., 3.5 h before DNP-BSA challenge
Description: C3H 6-7 week male and female WT mice were purchased from Jackson Lab (Cambridge, Mass., USA), mice were fed a regular diet and with drinking water ad libitum. Experiments were approved by The Hebrew University Ethical Committee for Animal Experimentation.
WT C3H mice were sensitized with 3 μg murine IgE anti-DNP mAb SPE-7 by means of intravenous injection in the tail vein. Twenty-four hours later, mice were treated with 40 mg/kg of static dissolved in corn oil or corn oil alone for 2.5 hours, then mice were challenged with i.v. injection of DNP-BSA (250 μg per mouse). 100 μl of blood was collected immediately and added to an equal volume of pre-cold Alsever's Solution. Blood was centrifuged 2000 g for […] and plasma supernatant was collected. Plasma histamine levels were determined by using competitive ELISA (IBL International Gmbh, Hamburg, Germany).
STAT3's role in vivo was investigated by evaluating the response to allergic stimulation in Stattic-treated mice. The passive systemic IgE-mediated anaphylaxis model was used. Mice were injected (i.v.) with IgE anti-DNP. Twenty four hours later they were injected (i.p.) with Stattic (80 mg/kg) or corn oil which was used as control. Three and a half hours later the mice were challenged with DNP-BSA for 1.5 minutes. Plasma was collected, and histamine levels were measured by competitive ELISA. Histamine secretion in Stattic-treated mice was 43% less than that in control mice (FIG. 17, p<0.05).
Mitocur-1/3 effectiveness in vivo was investigated by evaluating the response to allergic stimulation in Mitocur-1/3-treated mice. The passive systemic IgE-mediated anaphylaxis model was used. Mice were injected (i.v.) with IgE anti-DNP. Twenty four hours later they were injected (i.p.) with Mitocur-1 (80 mg/kg) and Mitocur-3 (40 mg/kg). Corn oil was used as control. Three and a half hours later the mice were challenged with DNP-BSA for 1.5 minutes. Plasma was collected, and histamine levels were measured by competitive ELISA. Histamine secretion in Mitocur-1-treated mice was 35% less than that in control mice (FIG. 22A, p<0.05).

RBL cells [9] = experiment: TNF-α secretion of activated RBL cells; type: cell-based, rat; details: activated RBL cells (FIG. 19G)
[10] = biological target: signal transducer and activator of transcription factor 3 (STAT3), mitochondrial, endogenous in RBL cells (rat (RBL cells)) (UniProt P52631); experiment: cell-based or functional assay
Sequence of UniProt P52631 (P52631 2-770 limits assumed): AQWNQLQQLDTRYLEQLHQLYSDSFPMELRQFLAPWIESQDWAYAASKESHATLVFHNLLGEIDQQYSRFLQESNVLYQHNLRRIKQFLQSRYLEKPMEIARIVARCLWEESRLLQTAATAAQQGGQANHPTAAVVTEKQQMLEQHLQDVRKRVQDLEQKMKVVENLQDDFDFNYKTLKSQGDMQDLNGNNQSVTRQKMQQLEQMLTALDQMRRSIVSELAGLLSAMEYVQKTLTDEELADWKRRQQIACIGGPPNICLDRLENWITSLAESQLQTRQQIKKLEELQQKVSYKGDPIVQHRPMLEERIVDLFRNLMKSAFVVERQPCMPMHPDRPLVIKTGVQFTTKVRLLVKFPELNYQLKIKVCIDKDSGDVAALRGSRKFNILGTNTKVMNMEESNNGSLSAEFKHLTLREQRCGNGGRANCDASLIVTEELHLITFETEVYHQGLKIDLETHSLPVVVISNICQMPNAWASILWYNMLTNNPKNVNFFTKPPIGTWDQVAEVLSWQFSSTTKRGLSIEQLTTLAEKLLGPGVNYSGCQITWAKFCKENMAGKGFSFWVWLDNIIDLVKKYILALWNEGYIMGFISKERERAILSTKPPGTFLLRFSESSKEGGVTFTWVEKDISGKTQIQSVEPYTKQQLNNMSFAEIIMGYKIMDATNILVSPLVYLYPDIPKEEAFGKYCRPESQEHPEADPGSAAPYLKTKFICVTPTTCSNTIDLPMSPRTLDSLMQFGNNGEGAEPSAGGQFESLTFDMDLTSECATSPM

[11] = immunologically activated BMMC, 6 μM (FIG. 21C)
[12] = RBL cells transfected with PIAS3-mito vs empty plasmid

With `COc1ccc(S(=O)(=O)Nc2cc(-c3c(O)ccc4ccccc34)c(O)c3ccccc23)cc1` [Mitocur C188-9, N-(1′,2-Dihydroxy-1,2′-binaphthalen-4′-yl)-4-methoxybenzenesulfonamide] the degranulation (RBL cells [1]; immunologically activated RBL cells, 250 μM C188-9, 10 min) was “abolished”.

With `N#CC(=C(/N)Sc1ccccc1N)/C(C#N)=C(\N)Sc1ccccc1N` [Mitocur U0126, reference compound] the “decrease in ATP levels” value (RBL cells [2]; immunologically activated RBL cells, 20 min pre-treatment with 40 μM U0126) was 3.0±0.4%, the “decrease in oxygen consumption” value (RBL cells [3]; activated RBL cells) was 15.8±4.9% and the “decrease in oxygen consumption” value (RBL cells [3]; quiescent RBL cells) was 9.4±2.4%. The “STAT3 727 serine phosphorylation, total cell level” value ([4]; RBL cells, 40 μM U0126, activated 5 min) was “significant decrease”, the “STAT3 727 serine phosphorylation, mitochondrial level” value ([4]; activated RBL cells fractionated into cytosol and mitochondria, 40 μM U0126) was “decrease” and the “reduction in degranulation as compared to control” value (RBL cells [1]; IgE-Ag stimulated RBL cells, 40 μM U0126, 20 min) was 33.0±0.6%. For the same molecule, the “degranulation levels at higher concentrations” value (RBL cells [1]; RBL cells, U0126 above 40 μM (FIG. 12)) was “more profound reduction” and the “caspase3 levels (apoptosis)” value (caspase3 [5]; activated RBL cells, 40 μM U0126) was “no change”.

With `COc1cc(/C=C/C(=O)CC(=O)/C=C/c2ccc(OCCC[P+](c3ccccc3)(c3ccccc3)c3ccccc3)c(OC)c2)ccc1OCCC[P+](c1ccccc1)(c1ccccc1)c1ccccc1` [Mitocur-1, 1,7-Bis{3-methoxy-4-[3-(triphenylphosphonium)propoxy]-phenyl}hepta-1,6-diene-3,5-dione dichloride] the ATP levels (RBL cells [2]; 100 μM, 3 h (data not shown)) was “reduced”, the ATP levels (RBL cells [2]; 6-50 μM, 3 h) was “No significant reduction” and the oxygen consumption (RBL cells [3]; 100 μM) was “reduced”. For the same molecule, the oxygen consumption (RBL cells [3]; 6-50 μM) was “No significant reduction”, the “c-myc levels compared to control” value (c-myc; 6 μM) was “no change” and the c-myc levels (c-myc; concentrations higher than 6 μM) was “reduced”. The degranulation levels (BMMC [6]; 3 h incubation) was “reduced”, the degranulation levels (BMMC [6]; 24 h incubation) was “reduced” and the “cleaved caspase3 levels” value (caspase3 [7]) was “no change”. For the same molecule, the Granzyme-B secretion (BMMC [8]; BMMC (data not shown)) was “abolished”, the “cytokine secretion: IL-6” value (BMMC [8]; [11]) was “totally abolished” and the “cytokine secretion: TNF-α” value (BMMC [8]; [11]) was “totally abolished”. The “histamine secretion less than in control mice” value (plasma histamine) was 35%, the Emax at 6 µM (RBL cells [1]; Rattus norvegicus, RBL cells, 6 μM, 3 h incubation, read-out: maximum effect, reduction of degranulation) was over 50% and the TNF-α secretion (RBL cells [9]) was “completely abolished”. The melting point was 130 to 140 °C, the cleaved caspase levels (caspase3 [5]; RBL cells, 6 μM, 3 h) was “no change” and the “cleaved caspase3 levels” value (caspase3 [5]; RBL cells, concentrations higher than 6 μM, 3 h) was “enhanced”.

For “PIAS3 fused to a mitochondrial target sequence (PIAS3-mito) (from UniProt O54714 13-628)”, the ATP levels of activated cells compared to control (empty plasmid) [10] was 15.9 % decrease and the degranulation (β-hexosaminidase release) [10] was 67.5%.

B1: PIAS3-mito: PIAS3 fused to a mitochondrial target sequence, expressed from a transfected plasmid (SEQ ID NO. 16) (protein)
chain: MSVLTPLLLRGLTGSARRLPVPRAKIHSLLQVDSFRVSELQVLLGFAGRNKSGRKHELLAKALHLLKSSCAPSVQMKIKELYRRRFPRKTLGPSDLSLLSLPPGTSPPVHPDVTMKPLPFYEVYGELIRPTTLASTSSQRFEEAHFTFALTPQQLQQILTSREVLPGAKCDYTIQVQLRFCLCETSCPQEDYFPPNLFVKVNGKLCPLPGYLPPTKNGAEPKRPSRPINITPLARLSATVPNTIVVNWSSEFGRNYSLSVYLVRQLTAGTLLQKLRAKGIRNPDHSRALIKEKLTADPDSEVATTSLRVSLMCPLGKMRLTVPCRALTCAHLQSFDAALYLQMNEKKPTWTCPVCDKKAPYESLIIDGLFMEILNSCSDCDEIQFMEDGSWCPMKPKKEASEVCPPPGYGLDGLQYSAVQEGIQPESKKRVEVIDLTIESSSDEEDLPPTKKHCPVTSAAIPALPGSKGALTSGHQPSSVLRSPAMGTLGSDFLSSLPLHEYPPAFPLGADIQGLDLFSFLQTESQHYGPSVITSLDEQDTLGHFFQYRGTPSHFLGPLAPTLGSSHRSSTPAPPPGRVSSIVAPGSSLREGHGGPLPSGPSLTGCRSDVISLD
In the case of B1, the “decrease in ATP levels of activated cells compared to control” value (RBL cells [2]; RBL cells transfected with PIAS3-mito vs empty plasmid, activated 5 min) is reported as 15.9±1.6%, the “oxygen consumption in activated cells compared to activated control cells” value (RBL cells [3]; [12]) is reported as “did not change” and the decrease in degranulation (RBL cells [1]; [12]) is reported as 67.5±15.0%.
